From patent US4824853A, “α,α-diaryl-4-aryl-4-hydroxy-1-piperidinebutanamide, N-oxides and method of treating diarrhea” (Janssen Pharmaceutica N.V., priority 1986, dated 1989)

Tests used:
diarrhea [1] = test: Castor Oil Test in Rats; type: in vivo, Female Wistar rats; conditions: Rattus norvegicus; intravenous, 1 h before 1 ml castor oil orally; diarrhea absent in 50% of animals 2 hours after castor oil
Procedure: Female Wistar rats were fasted overnight. Each animal was treated intravenously with the desired dose of the compound to be tested. One hour thereafter, the animal received 1 ml of castor oil orally. Each animal was kept in an individual cage and 2 hours after the castor oil treatment, the presence or absence of diarrhea was noted. The ED50 value was determined as that dose in mg/kg body weight, at which no diarrhea was present in 50% of the tested animals. Said ED50 -value for a compound of the present invention and for 4-(4-chlorophenyl)-4-hydroxy-N,N-dimethyl-α,α-diphenyl-1-piperidinebutanamide, which compound is generically designated as loperamide and which is described in U.S. Pat. No. 3,714,159, can be found in table I.

[2] = Determination of the safety margin for the antidiarrheal action (LD50 / Castor Oil ED50); parameters: species or system Female Wistar rats; conditions: rat, in vivo; ratio LD50 / ED50 Castor Oil Test
Procedure: (§1) The safety margin for the antidiarrheal action was determined as the ratio of the LD50 value to the ED50 value obtained in the Castor Oil Test. The antidiarrheal specificity was determined as the ratio of the ED50 value obtained in the Tail Withdrawal Test to the ED50 value obtained in the Castor Oil Test.

[3] = Determination of toxicity; parameters: species or system Female Wistar rats; conditions: rat, in vivo; dose lethal in 50% of tested animals; route not stated
Procedure: Female Wistar rats were treated with the compound to be tested at various dose levels. LD50 values were determined as that dose in mg/kg body weight being lethal in 50% of the tested animals. Said LD50 values obtained for a compound of the present invention and for 4-(4-chlorophenyl)-4-hydroxy-N,N-dimethyl-α,α-diphenyl-1-piperidinebutanamide (i.e. loperamide) are also listed in table I. From these value it can be concluded that the compounds of the present invention show a decreased toxicity.

diarrhea [4] = test: Determination of the antidiarrheal specificity (Tail Withdrawal ED50 / Castor Oil ED50); type: in vivo, Female Wistar rats; conditions: ratio ED50 Tail Withdrawal Test / ED50 Castor Oil Test
Procedure: as §1

tail withdrawal response = test: Tail Withdrawal Test in Rats; type: in vivo, Female Wistar rats; conditions: intravenous; for ED50: Rattus norvegicus, 55° C. water, response suppressed >10 seconds in 50% of animals, indicator of central effects
Procedure: Female Wistar rats were fasted overnight. Each animal was treated intravenously with the desired dose of the compound to be tested. The thus treated rats were put into individual restraining cages. After the administration of the test compound, the lower 5 cm portion of the tail was immersed into a cup filled with water at a constant temperature of 55° C. The typical tail withdrawal response was evaluated during a 10 seconds period after the immersion. ED50 values in mg/kg body weight were determined at that dose of the test compound capable of suppressing in 50% of the tested animals the typical tail withdrawal response during a time period exceeding 10 seconds.

| Compound | ED50 (diarrhea [1]) [mg/kg] | selectivity ratio [2] | LD50 [3] [mg/kg] | Antidiarrheal specificity (diarrhea [4]) | ED50 (tail withdrawal response) [mg/kg] | typical tail withdrawal reflex antagonism (in words) (tail withdrawal response) |
| --- | --- | --- | --- | --- | --- | --- |
| CN(C)C(=O)C(CC[N+]1([O-])CCC(O)(c2ccc(Cl)cc2)CC1)(c1ccccc1)c1ccccc1 (stereo not drawn) [Compound 1, trans-4-(4-chlorophenyl)-4-hydroxy-N,N-dimethyl-α,α-diphenyl-1-piperidinebutanamide, N-oxide] | 0.21 | 135 | 28.3 | > 95 | > 20 | does not show such activity |
| CN(C)C(=O)C(CCN1CCC(O)(c2ccc(Cl)cc2)CC1)(c1ccccc1)c1ccccc1 [loperamide, 4-(4-chlorophenyl)-4-hydroxy-N,N-dimethyl-α,α-diphenyl-1-piperidinebutanamide] | 0.095 | 62.3 | 5.92 | 29.8 | 2.83 | antagonizes the typical tail withdrawal reflex |
